Reference: patent US5928896A, “Polypeptides that include conformation-constraining groups which flank a protein--protein interaction site” (Virginia Commonwealth University, priority 1997, dated 1999)
Where a SMILES comes first, the peptide text is derived from it.

What was measured:
[1] = system: receptors of sweet tasting papillae; settings: comparison; cited from earlier work
[2] = Preliminary studies of hypotensive peptide versus diltiazem (diastolic pressure, arrhythmia); assay type: in vivo, rat
Experimental: Dose: 60 to 120 μg per rat (5 to 10 μM).

COC(=O)[C@H](Cc1ccccc1)NC(=O)[C@@H](N)CC(=O)O [aspartame] (H-Asp-Phe-OMe)
Sweetness relative to sugar [1]: 160 times sweeter than sugar

COc1ccc([C@@H]2Sc3ccccc3N(CCN(C)C)C(=O)[C@@H]2OC(C)=O)cc1 [diltiazem]
Effect on diastolic pressure [2]: small increase in the diastolic pressure
